According to patent publication US20120178666A1 (SHIRE LLC, priority 2009, published 2012):
Where two headings read alike, the source gives them in different places.

Tests used:
[1] = Prodrug stability in simulated gastric fluid (USP); conditions: 37° C.
Experimental: (§1) The remaining concentrations of the prodrugs were then assayed by HPLC.

[2] = Prodrug stability in simulated intestinal fluid (USP); conditions: 37° C.
Experimental: as §1

gut motility = test: Charcoal propulsion test (gut motility); format: in vivo, rat
Experimental: The effect of a drug on gut motility can be studied by means of the charcoal propulsion test.
The method used was based on that described by Takemori et al. (J. Pharmacol. Exp. Ther. 169:39, 1969). Test treatments were administered orally 60 minutes prior to an oral dose of a 10% suspension of charcoal in 2.5% gum Arabic (2 ml/kg). Twenty minutes after dosing with charcoal, the rats were sacrificed and the entire gastrointestinal tract was removed quickly and carefully. The distance that the charcoal meal had travelled toward the caecum was measured and expressed as a percentage of the total gut length.

[3] = Comparative pharmacokinetic screening study of guanfacine prodrugs in the monkey; conditions: oral gavage
Experimental: Blood samples were taken on 4 sampling occasions at various times up to 6 hours after administration and submitted to analysis for the parent drug and prodrug using a qualified LC-MS-MS assay.

[4] = Pharmacokinetics in rats in hepatic portal and tail veins following oral administration; format: in vivo; conditions: rat, equimolar dose
Experimental: Rats were surgically prepared under isofluorane anaesthesia by attaching a silicon catheter to the portal vein then exteriorising it at the nape of the neck with a blood collection port attached.
At each sampling time serial point blood samples (approximately 0.2 mL) were taken simultaneously from the lateral tail vein cannula and the hepatic portal cannula. After collection of the final blood sample each animal was killed by cervical dislocation. Blood samples were collected at 15, 30 minutes and 1, 2, 4, 8 and 24 hours post dose.
Pharmacokinetic parameters in portal and systemic plasma were derived by non-compartmental analysis (linear/logarithmic trapezoidal) using WinNonlin (Version 4.1) software.

[5] = immediate release guanfacine (TENEX); cited from earlier work
[6] = Comparative bioavailability study in monkeys in the fasted or fed state; format: in vivo, cynomolgus monkey; conditions: fasted vs fed
Experimental: Five male cynomolgus monkeys were used. Food was withdrawn from animals in fasted groups from the evening of the day prior to dosing until approximately 4 hours after dosing.
The formulations were prepared on the day of dosing and administered orally as soon as practicable up to a maximum of 2 hours after formulation.
Blood samples (0.5 mL) were collected from all animals pre-dose and at 0.5, 1, 2, 3, 4, 6, 8 10, 12, 16 and 24 hours after dosing.
Following processing, the resultant plasma was frozen and analysed by a qualified method. Pharmacokinetic evaluation was performed using a validated pharmacokinetic software package.

[7] = Rattus norvegicus, po, read-out: % inhibition of GIT transit compard to vehicle

In the case of `CNCC(=O)N[C@@H](COC(=O)NC(=N)NC(=O)Cc1c(Cl)cccc1Cl)C(=O)O` [Compound 61, (S)-serine(guanfacine)-sarcosine carbamate di-trifluoroacetate], the “% prodrug remaining following incubation for: 1 h in simulated gastric fluid pH 1.1” value [1] is reported as 92%, the “% prodrug remaining following incubation for: 2 h in simulated intestinal fluid pH 6.8” value [2] is reported as 96% and the inhibition at 0.1 mg/kg (gut motility; [7]) is reported as 8%. The inhibition at 0.3 mg/kg (gut motility; [7]) was 25%, the inhibition at 1 mg/kg (gut motility; [7]) was 31% and the “prodrug levels in plasma (in words)” value [3] was “detectable prodrug levels in plasma”. For the same compound, the “comparative systemic exposure to guanfacine (in words)” value [4] was “similar”.
In the case of `CNCC(=O)N[C@H](C(=O)O)[C@@H](C)OC(=O)NC(=N)NC(=O)Cc1c(Cl)cccc1Cl` [Compound 63, sarcosine-(2S,3R)-threonine(guanfacine) carbamate di-trifluoroacetate], the “% prodrug remaining following incubation for: 1 h in simulated gastric fluid pH 1.1” value [1] is reported as 86%, the “% prodrug remaining following incubation for: 2 h in simulated intestinal fluid pH 6.8” value [2] is reported as 99% and the inhibition at 0.1 mg/kg (gut motility; [7]) is reported as 0%. For the same compound, the inhibition at 0.3 mg/kg (gut motility; [7]) was 13%, the inhibition at 1 mg/kg (gut motility; [7]) was 49% and the “prodrug levels in plasma (in words)” value [3] was “detectable prodrug levels in plasma”. The “comparative systemic exposure to guanfacine (in words)” value [4] was “similar”.
In the case of `N=C(N)NC(=O)Cc1c(Cl)cccc1Cl` [Guanfacine, guanfacine, reference compound], the “time at which peak plasma drug levels are reached after dosing” value [5] is given as at least 1 h, the “food effect (in words)” value [6] is given as “apparent absence of a food effect” and the inhibition at 0.1 mg/kg (gut motility; Rattus norvegicus, po, Study 1, oral dose 0.1 mg/kg guanfacine free base equivalents, read-out: % inhibition of GIT transit compard to vehicle) is given as 52%. The inhibition at 0.3 mg/kg (gut motility; Rattus norvegicus, po, Study 1, oral dose 0.3 mg/kg guanfacine free base equivalents, read-out: % inhibition of GIT transit compard to vehicle) was 55%, the inhibition at 1 mg/kg (gut motility; Rattus norvegicus, po, Study 1, oral dose 1 mg/kg guanfacine free base equivalents, read-out: % inhibition of GIT transit compard to vehicle) was 47% and the inhibition at 0.03 mg/kg (gut motility; Rattus norvegicus, po, Study 2, oral dose 0.03 mg/kg guanfacine free base equivalents, read-out: % inhibition of GIT transit compard to vehicle) was 13%. The inhibition at 0.1 mg/kg (gut motility; Rattus norvegicus, po, Study 2, oral dose 0.1 mg/kg guanfacine free base equivalents, read-out: % inhibition of GIT transit compard to vehicle) was 41%, the inhibition at 0.3 mg/kg (gut motility; Rattus norvegicus, po, Study 2, oral dose 0.3 mg/kg guanfacine free base equivalents, read-out: % inhibition of GIT transit compard to vehicle) was 56% and the “reduction in the distance travelled by the charcoal plug within 20 minutes compared to control group” value (gut motility; oral, 0.1 mg base/kg) was 41-52%.
